Data set [1] relates to influenza virus A/Aichi/2/68 (H3N2). Kind of data set: organism not typed. The data set is classed as cell-based. The conditions noted are these: for IC50: MDCK.
A short description of data set [2]: in vitro. As to conditions: dog.
Data set [3] in a line: in vitro.
Data set [4] in a line: in vitro. As to conditions: cattle.
The nature of data set [5]: in vitro. As to conditions: human.
A further data set has as its system human cytomegalovirus. It counts as cell-based.
Data set [6] is described as follows: in vitro. As to conditions: human. The source holds these as a separate data set.
Another data set deals with vaccinia virus. It counts as cell-based. As to conditions: in vitro, cell culture.
For data set [7] the following is noted: rat, in vivo.

Structures are written as SMILES. Where two headings read alike, the source gives them in different places. Where only a bound is given, the exact number is not on record here.

These results are taken from patent US11241393B2 (priority 2020, dated 2022).

In general, IC50 refers to the point on the concentration scale where inhibition reaches its midpoint. Read a low IC50 as greater potency in that assay.

In data set [1], `CC(N)C12CC3CC(CC(C3)C1)C2` (centres unmarked) [Rimantadine, reference compound] displayed an SI of 3133.0 and an IC50 of 0.03 µM. The molecule also had a CC50 in “in vitro [2]” of 94 µM.

For `CCCCCCCCCC[Si](C)(C)CCOC1OC(CO)C(O)C(O)C1O` [Sil 2, 2-(Dimethyldecylsilyl)ethyl-b-D-glucopyranoside], the “cytotoxicity (summary in words)” value in the data set with MDCK cells, in the data set on CT cells and in the data set on HEp-2 cells was “wider toxicity” throughout. Also, the CC50 was 18 µM in the data set with MDCK cells (dog); less than 20 µM in the data set “in vitro [3]”; less than 20 µM in “in vitro [4]”; less than 20 µM in the data set “in vitro [5]”; less than 20 µM in “in vitro [2]”. Also, in data set [1], the SI was determined as 2.43. Moreover, the “antiviral activity toward influenza virus A(H3N2)” value in data set [1] is listed as “marked activity”. In addition, inhibition in data set [1] was half-maximal at 7.38 µM (IC50). In addition, the “antiviral activity against human cytomegalovirus” value in the data set with human cytomegalovirus is “Close to borderline effect”.

`CCCCCCCCCCCC[Si](C)(C)CCOC1OC(CO)C(O)C(O)C1O` [Sil 3, 2-(Dimethyldodecylsilyl)ethyl-b-D-glucopyranoside]: the CC50 was 19.2 µM in the data set on MDCK cells (dog), less than 20 µM in the data set “in vitro [3]”, less than 20 µM in the data set “in vitro [4]” and less than 20 µM in “in vitro [2]”. In data set [1], the SI was determined as 2.9. In data set [1], the “antiviral activity toward influenza virus A(H3N2)” value was “marked activity”. The molecule further came in with an IC50 in data set [1] of 6.6 µM.

For `CCCC[Si](C)(C)OC1OC(CO)C(O)C(O)C1O` [Sil 7, Butyldimethylsilyl-a-D-galactopyranoside], the CC50 in the data set “in vitro [6]” is less than 20 µM; in “in vitro [2]”, 444 µM. Besides, in the data set on human cytomegalovirus, the “antiviral activity against human cytomegalovirus” value was “Close to borderline effect”.

In “in vitro [2]”, `CCCCCCCCCCCC[Si](C)(C)OC1OC(CO)C(O)C(O)C1O` [Sil 9, Dodecyldimethylsilyl-a-D-glucopyranoside] displayed a CC50 of 444 µM. The “antiviral activity versus vaccinia virus” value in the data set with vaccinia virus is on record as “marked activity”.

Turning to `CCCCCCCCCCCCCCCCCC[Si](CCCCCCCCCCCCCCCCCC)(OC1OC(COC(C)=O)C(OC(C)=O)C(OC(C)=O)C1OC(C)=O)OC1OC(COC(C)=O)C(OC(C)=O)C(OC(C)=O)C1OC(C)=O` [Sil 15, 1-O-Dioctadecylsilyl-di(2,3,4,6-O-tetraacetyl-b-D-galactopyranoside)], the “antiviral activity against human cytomegalovirus” value in the data set on human cytomegalovirus (in vitro, cell culture) is listed as “Close to borderline effect”.

For the molecule `CCCCCCCCCCCC[Si](C)(C)O[C@@H]1O[C@H](COC(C)=O)[C@@H](OC(C)=O)[C@H](OC(C)=O)[C@H]1OC(C)=O` [Sil 19, 1-O-Dimethyl(dodecyl)silyl-(2,3,4,6-O-tetraacetyl-b-D-glucopyranoside)], the CC50 in the data set on MDCK cells was 65.5 µM. Also, the “antiviral activity against human cytomegalovirus” value with human cytomegalovirus is given as “Close to borderline effect”.

For the molecule `CCCCCCCCCCCCCCCCCC[Si](C)(C)O[C@@H]1O[C@H](COC(C)=O)[C@@H](OC(C)=O)[C@H](OC(C)=O)[C@H]1OC(C)=O` [Sil 20, 1-O-Dimethyl(octadecyl)silyl-(2,3,4,6-O-tetraacetyl-b-D-glucopyranoside)], the CC50 in the data set on MDCK cells worked out at 2530 µM. The “antiviral activity toward the cytomegalovirus” value in the data set with human cytomegalovirus is “marked activity”.

`CCCCCCCCCCCC(=O)O[Si](OC(=O)CCCCCCCCCCC)(c1ccccc1)c1ccccc1` [Sil 25, Di(dodecanoyloxy)diphenylsilane]: in the data set “in vitro [3]”, the CC50 is less than 20 µM. Further, in data set [1], the SI came out at 5.82, the “antiviral activity toward influenza virus A(H3N2)” value is “marked activity” and the IC50 stood at 9.6 µM. The CC50 in “in vitro [2]” amounted to 55.9 µM.

With `CCCCCCCCCCCCCCCC(=O)O[Si](OC(=O)CCCCCCCCCCCCCCC)(c1ccccc1)c1ccccc1` [Sil 27, Di(hexadecanoyloxy)diphenylsilane], the CC50 in “in vitro [2]” is 317 µM. Also, in the data set on human cytomegalovirus, the SI is 30.9 and the “antiviral activity against human cytomegalovirus” value is “marked activity”.

`CCCCCCCCCCC(=O)O[Si](C)(C)OC(=O)CCCCCCCCCC` [Sil 34, Di(undecanoyloxy)dimethylsilane] came in with a CC50 in “in vitro [2]” of 2530 µM. In the data set with human cytomegalovirus, the “antiviral activity against human cytomegalovirus” value was “Close to borderline effect”.

Regarding `N.N.[Cl-].[Cl-].[OH-].[OH-].[Pt+4]` [Standard Cis-Oxoplatin, cis-oxoplatin], the “tissues with highest platinum concentration compared with the other treatment groups” value in [7] (iv) is “highest platinum concentration in the stomach and the liver”; in [7] (po), “highest accumulation of platinum in the spleen and lungs”.
